Organism: Rattus norvegicus
Experiment: DrugMatrix - Regimen: Daily Repeat
Format: toxicity, organism-based, Sprague-Dawley
Set-up: regimen Daily Repeat, gender Male, age 6-8 weeks
Settings: in vivo, po, route oral GAVAGE, vehicle .5 % CMC; for ABSOLUTE BASOPHIL / ABSOLUTE EOSINOPHIL / ABSOLUTE LYMPHOCYTE / ABSOLUTE MONOCYTE / ABSOLUTE SEGMENTED NEUTROPHIL / BASOPHIL / EOSINOPHIL / ERYTHROCYTE COUNT / HEMATOCRIT / HEMOGLOBIN / LEUKOCYTE COUNT / LYMPHOCYTE / MEAN CORPUSCULAR HEMOGLOBIN / MEAN CORPUSCULAR HEMOGLOBIN CONCENTRATION / MEAN CORPUSCULAR VOLUME / MONOCYTE / NEUTROPHIL / NUCLEATED RED BLOOD CELLS / PLATELET COUNT: tissue Blood; for ALANINE AMINOTRANSFERASE / ALBUMIN / ALKALINE PHOSPHATASE / ASPARTATE AMINOTRANSFERASE / BLOOD UREA NITROGEN / CARBON DIOXIDE / CHLORIDE / CHOLESTEROL / CREATINE PHOSPHOKINASE / CREATININE / GLUCOSE / LACTATE DEHYDROGENASE / LIPASE / PHOSPHORUS / POTASSIUM / SODIUM / TOTAL BILIRUBIN / TOTAL PROTEIN / URIC ACID: tissue Plasma
[1] = 47 mg/kg, 120 h, dose level High, time 5 day
[2] = […], 72 h, dose 3.6 mg/Kg, dose level Low, time 3 day
[3] = […], 120 h, dose 3.6 mg/Kg, dose level Low, time 5 day

## CN(C)C(=O)C(CCN1CCC(O)(c2ccc(Cl)cc2)CC1)(c1ccccc1)c1ccccc1 [LOPERAMIDE]
[1]
  ABSOLUTE BASOPHIL: 0 CELLS/uL
  ABSOLUTE EOSINOPHIL: 31.33 CELLS/uL
  ABSOLUTE LYMPHOCYTE: 6903.67 CELLS/uL
  ABSOLUTE MONOCYTE: 106 CELLS/uL
  ABSOLUTE SEGMENTED NEUTROPHIL: 859 CELLS/uL
  BASOPHIL: 0%
  EOSINOPHIL: 0.33%
  ERYTHROCYTE COUNT: 5.64 x10E6/uL
  HEMATOCRIT: 35.1%
  HEMOGLOBIN: 14.03 G/DL
  LEUKOCYTE COUNT: 7.9 x10E3/uL
  LYMPHOCYTE: 87.67%
  MEAN CORPUSCULAR HEMOGLOBIN: 24.93 pg
  MEAN CORPUSCULAR HEMOGLOBIN CONCENTRATION: 40 G/DL
  MEAN CORPUSCULAR VOLUME: 62.3 fL
  MONOCYTE: 1.33%
  NEUTROPHIL: 10.67%
  NUCLEATED RED BLOOD CELLS: 0 /100WBC
  PLATELET COUNT: 1406.33 x10E3/uL
  ALANINE AMINOTRANSFERASE: 93.33 u/L
  ALBUMIN: 4.4 G/DL
  ALKALINE PHOSPHATASE: 365.33 u/L
  ASPARTATE AMINOTRANSFERASE: 91 u/L
  BLOOD UREA NITROGEN: 16 mg/dL
  CARBON DIOXIDE: 30.67 mmol/L
  CHLORIDE: 100.67 MEQ/L
  CHOLESTEROL: 58 mg/dL
  CREATINE PHOSPHOKINASE: 208.67 u/L
  CREATININE: 0.14 mg/dL
  GLUCOSE: 162.67 mg/dL
  LACTATE DEHYDROGENASE: 118.33 u/L
  LIPASE: 7.67 u/L
  PHOSPHORUS: 10.77 mg/dL
  POTASSIUM: 4.92 MEQ/L
  SODIUM: 146.5 MEQ/L
  TOTAL BILIRUBIN: 0.17 mg/dL
  TOTAL PROTEIN: 6.07 G/DL
  URIC ACID: 0.83 mg/dL
[2]
  ABSOLUTE BASOPHIL: 0 CELLS/uL
  ABSOLUTE EOSINOPHIL: 192.67 CELLS/uL
  ABSOLUTE LYMPHOCYTE: 13020.33 CELLS/uL
  ABSOLUTE MONOCYTE: 102.67 CELLS/uL
  ABSOLUTE SEGMENTED NEUTROPHIL: 1651 CELLS/uL
  BASOPHIL: 0%
  EOSINOPHIL: 1.33%
  ERYTHROCYTE COUNT: 5.19 x10E6/uL
  HEMATOCRIT: 33.57%
  HEMOGLOBIN: 13.8 G/DL
  LEUKOCYTE COUNT: 14.97 x10E3/uL
  LYMPHOCYTE: 87%
  MEAN CORPUSCULAR HEMOGLOBIN: 26.63 pg
  MEAN CORPUSCULAR HEMOGLOBIN CONCENTRATION: 41.1 G/DL
  MEAN CORPUSCULAR VOLUME: 64.7 fL
  MONOCYTE: 0.67%
  NEUTROPHIL: 11%
  NUCLEATED RED BLOOD CELLS: 0 /100WBC
  PLATELET COUNT: 1302 x10E3/uL
  ALANINE AMINOTRANSFERASE: 64.33 u/L
  ALBUMIN: 4.2 G/DL
  ALKALINE PHOSPHATASE: 426 u/L
  ASPARTATE AMINOTRANSFERASE: 86 u/L
  BLOOD UREA NITROGEN: 16 mg/dL
  CARBON DIOXIDE: 27 mmol/L
  CHLORIDE: 102 MEQ/L
  CHOLESTEROL: 83.33 mg/dL
  CREATINE PHOSPHOKINASE: 331 u/L
  CREATININE: 0.14 mg/dL
  GLUCOSE: 168 mg/dL
  LACTATE DEHYDROGENASE: 198.33 u/L
  LIPASE: 10 u/L
  PHOSPHORUS: 11.93 mg/dL
  POTASSIUM: 5.72 MEQ/L
  SODIUM: 142.8 MEQ/L
  TOTAL BILIRUBIN: 0.13 mg/dL
  TOTAL PROTEIN: 5.63 G/DL
  URIC ACID: 1.23 mg/dL
[3]
  ABSOLUTE BASOPHIL: 0 CELLS/uL
  ABSOLUTE EOSINOPHIL: 0 CELLS/uL
  ABSOLUTE LYMPHOCYTE: 11205 CELLS/uL
  ABSOLUTE MONOCYTE: 32.67 CELLS/uL
  ABSOLUTE SEGMENTED NEUTROPHIL: 1129 CELLS/uL
  BASOPHIL: 0%
  EOSINOPHIL: 0%
  ERYTHROCYTE COUNT: 5.52 x10E6/uL
  HEMATOCRIT: 35.23%
  HEMOGLOBIN: 14.13 G/DL
  LEUKOCYTE COUNT: 12.37 x10E3/uL
  LYMPHOCYTE: 91%
  MEAN CORPUSCULAR HEMOGLOBIN: 25.63 pg
  MEAN CORPUSCULAR HEMOGLOBIN CONCENTRATION: 40.13 G/DL
  MEAN CORPUSCULAR VOLUME: 63.87 fL
  MONOCYTE: 0.33%
  NEUTROPHIL: 8.67%
  NUCLEATED RED BLOOD CELLS: 0 /100WBC
  PLATELET COUNT: 1068 x10E3/uL
  ALANINE AMINOTRANSFERASE: 58.33 u/L
  ALBUMIN: 4.3 G/DL
  ALKALINE PHOSPHATASE: 376 u/L
  ASPARTATE AMINOTRANSFERASE: 86.67 u/L
  BLOOD UREA NITROGEN: 13.67 mg/dL
  CARBON DIOXIDE: 33 mmol/L
  CHLORIDE: 101.67 MEQ/L
  CHOLESTEROL: 67.67 mg/dL
  CREATINE PHOSPHOKINASE: 233.67 u/L
  CREATININE: 0.2 mg/dL
  GLUCOSE: 140.33 mg/dL
  LACTATE DEHYDROGENASE: 157.33 u/L
  LIPASE: 9.67 u/L
  PHOSPHORUS: 12.57 mg/dL
  POTASSIUM: 6.47 MEQ/L
  SODIUM: 145.27 MEQ/L
  TOTAL BILIRUBIN: 0.2 mg/dL
  TOTAL PROTEIN: 6.07 G/DL
  URIC ACID: 1.23 mg/dL
